8 compounds from PubChem BioAssay (NCI) can be followed below.

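In this assay, cells in 96-well plates receive the compound at five concentrations for 48 hours. Endpoints are linearly interpolated between the surrounding concentrations. Here, GI50 denotes the concentration required for 50% inhibition of growth. TGI marks complete inhibition of growth.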

Among the test systems are HL-60(TB) leukemia; MCF7 breast; SN12C renal; A498 renal; HCT-116 colon; U251 CNS; SF-268 CNS; EKVX NSCLC; HS 578T breast; OVCAR-8 ovarian.
Experiment in all cases: NCI anticancer screen, dose series, 48 h

On to `O=C1c2ccccc2-c2c1c1ccc([N+](=O)[O-])cc1c(=O)n2CCNCCCNCCn1c2c(c3ccc([N+](=O)[O-])cc3c1=O)C(=O)c1ccccc1-2`, for which the GI50 is 1.5 µM in the experiment on HL-60(TB) leukemia; 0.708 µM with MCF7 breast; 0.144 µM in the experiment on SN12C renal; 1.82 µM in the experiment with A498 renal; 0.129 µM in the experiment with HCT-116 colon; 0.166 µM with U251 CNS. Moreover, the GI50 is 0.0881 µM with SF-268 CNS, 4.87 µM in the experiment on EKVX NSCLC, 1.34 µM in the experiment on HS 578T breast and 0.0989 µM with OVCAR-8 ovarian. The TGI with HL-60(TB) leukemia came to 50 µM; in the experiment with MCF7 breast, 27.1 µM; with SN12C renal it was 4.04 µM; with A498 renal, 19.1 µM; in the experiment with HCT-116 colon it was 4.5 µM; with U251 CNS, 3.63 µM. The TGI in the experiment with SF-268 CNS came to 12.5 µM; in the experiment on EKVX NSCLC, 28.2 µM; in the experiment on HS 578T breast, 31.4 µM; in the experiment on OVCAR-8 ovarian, 8.76 µM.

For `CNC(=O)c1c(NC(=O)c2cccc(C(F)(F)F)c2)sc2c1CCC(=O)C2`, the GI50 with HL-60(TB) leukemia is 0.318 µM; in the experiment with MCF7 breast it was 0.283 µM; in the experiment on SN12C renal, 0.361 µM; in the experiment on A498 renal, 1.67 µM; with HCT-116 colon, 0.199 µM; with U251 CNS, 0.259 µM. The GI50 is 0.486 µM in the experiment on SF-268 CNS, 0.593 µM with EKVX NSCLC, 0.425 µM in the experiment with HS 578T breast and 0.324 µM with OVCAR-8 ovarian. The TGI with HL-60(TB) leukemia is 1.98 µM; in the experiment with MCF7 breast it was 2.84 µM; in the experiment on SN12C renal, over 20.7 µM; in the experiment with A498 renal it was 5.71 µM; in the experiment on HCT-116 colon, 1.59 µM; in the experiment with U251 CNS it was 2.73 µM. Further, the TGI in the experiment on SF-268 CNS is over 100 µM; in the experiment on EKVX NSCLC, over 21.7 µM; with HS 578T breast, 45.9 µM; with OVCAR-8 ovarian it was over 100 µM.

Take `CCc1ccc(-c2ccc(=O)n(-c3ccc(S(N)(=O)=O)cc3)n2)cc1`: the GI50 in the experiment with HL-60(TB) leukemia is 0.365 µM; in the experiment with MCF7 breast, 1.46 µM; in the experiment with SN12C renal, 9.88 µM; in the experiment with A498 renal it was 8.86 µM; with HCT-116 colon, 0.951 µM; with U251 CNS, 3.36 µM. The GI50 in the experiment with SF-268 CNS is 9.06 µM; with EKVX NSCLC it was 5.65 µM; in the experiment on HS 578T breast, 1.55 µM; in the experiment on OVCAR-8 ovarian it was 11 µM. The TGI with HL-60(TB) leukemia was 4.18 µM; with MCF7 breast it was over 43.5 µM; in the experiment on SN12C renal, over 100 µM; in the experiment on A498 renal, over 61.4 µM; in the experiment with HCT-116 colon, over 43.7 µM; in the experiment with U251 CNS, 29 µM. In addition, the TGI in the experiment with SF-268 CNS was over 69.3 µM; with EKVX NSCLC it was over 100 µM; in the experiment on HS 578T breast it was 23.6 µM; in the experiment with OVCAR-8 ovarian, over 100 µM.

Regarding `COc1cc2c(cc1OCCCOC1=C=C=C(c3ccc4c(c3)c3cc(-c5ccc(OCCCOc6cc7c(cc6OC)C(=O)N6CCC[C@H]6C=N7)cc5)ccc3n4S(=O)(=O)c3ccc(C)cc3)C=C1)N=C[C@@H]1CCCN1C2=O`, the GI50 was 0.826 µM in the experiment on HL-60(TB) leukemia; 1.23 µM in the experiment on MCF7 breast; 2 µM with SN12C renal; 3.14 µM with A498 renal; 1.62 µM in the experiment with HCT-116 colon; 0.966 µM in the experiment on U251 CNS. Further, the GI50 is 0.934 µM in the experiment with SF-268 CNS, 9.35 µM with EKVX NSCLC, 1.42 µM in the experiment on HS 578T breast and 1.54 µM in the experiment on OVCAR-8 ovarian. In addition, the TGI in the experiment on HL-60(TB) leukemia was over 11.4 µM; in the experiment with MCF7 breast it was 11.3 µM; in the experiment on SN12C renal, 9.98 µM; in the experiment on A498 renal it was 9.06 µM; in the experiment with HCT-116 colon it was 7.05 µM; in the experiment on U251 CNS, 2.87 µM. Besides, the TGI is 2.85 µM in the experiment with SF-268 CNS, 22.9 µM in the experiment with EKVX NSCLC, over 10.8 µM in the experiment on HS 578T breast and over 17 µM with OVCAR-8 ovarian.

In the case of `NC(=O)C(Br)CBr` (stereo not given), the GI50 is 0.728 µM with HL-60(TB) leukemia; 2.18 µM in the experiment on MCF7 breast; 3.93 µM with SN12C renal; 15.3 µM with A498 renal; 1.3 µM in the experiment with HCT-116 colon; 3.73 µM in the experiment with U251 CNS. The GI50 in the experiment with SF-268 CNS is 2.65 µM; with EKVX NSCLC, 1.9 µM; with HS 578T breast it was 2.86 µM; in the experiment with OVCAR-8 ovarian, 1.8 µM. Further, the TGI in the experiment with HL-60(TB) leukemia worked out at 3.05 µM; in the experiment with MCF7 breast, 11.5 µM; with SN12C renal, 20.6 µM; with A498 renal, 29 µM; in the experiment on HCT-116 colon, 2.56 µM; in the experiment with U251 CNS it was 14.7 µM. In addition, the TGI came out at 8.29 µM with SF-268 CNS, 4.92 µM in the experiment with EKVX NSCLC, 14.3 µM in the experiment on HS 578T breast and 4.44 µM in the experiment on OVCAR-8 ovarian.

As for `CCN(CC)c1ccc(N=C2C=C(C(=O)Nc3ccc(S(C)(=O)=O)cc3)C(=O)c3ccccc32)c(C)c1`, the GI50 in the experiment on HL-60(TB) leukemia was 14 µM; with MCF7 breast it was over 100 µM; with SN12C renal, over 100 µM; in the experiment with A498 renal, over 100 µM; with HCT-116 colon, 12.6 µM; with U251 CNS it was 4.69 µM. Besides, the GI50 in the experiment on SF-268 CNS is 2.4 µM; in the experiment on EKVX NSCLC it was 5.52 µM; with HS 578T breast it was 1.87 µM; in the experiment on OVCAR-8 ovarian it was over 100 µM. For the same compound, the TGI with HL-60(TB) leukemia, in the experiment on MCF7 breast, with SN12C renal, with A498 renal, in the experiment on HCT-116 colon and in the experiment on U251 CNS was over 100 µM throughout. Further, the TGI in the experiment on SF-268 CNS, in the experiment with EKVX NSCLC, with HS 578T breast and with OVCAR-8 ovarian was over 100 µM throughout.

In the case of `CCON=C1C(C)(C)C(C)(C)C(C)(C)C1(C)C`, the TGI with HL-60(TB) leukemia, with MCF7 breast, in the experiment with SN12C renal, in the experiment on A498 renal, in the experiment with HCT-116 colon and in the experiment on U251 CNS was over 100 µM throughout. In addition, the TGI in the experiment with SF-268 CNS, in the experiment with EKVX NSCLC, in the experiment with HS 578T breast and in the experiment on OVCAR-8 ovarian was over 100 µM throughout.

Take `O=C(Nc1ncc(Cc2ccccc2)s1)c1ccc2c(c1)OCCCO2`: the GI50 in the experiment on HL-60(TB) leukemia was 0.33 µM; in the experiment on MCF7 breast, 0.374 µM; in the experiment on SN12C renal, 2.12 µM; with A498 renal, 0.282 µM; in the experiment with HCT-116 colon, 0.468 µM; in the experiment on U251 CNS it was 0.631 µM. The GI50 in the experiment with SF-268 CNS was 1.92 µM; in the experiment with EKVX NSCLC, 1.05 µM; in the experiment with HS 578T breast, 1.14 µM; in the experiment with OVCAR-8 ovarian, 2.01 µM. For the same compound, the TGI in the experiment with HL-60(TB) leukemia is over 51.6 µM; with MCF7 breast it was over 100 µM; in the experiment on SN12C renal, over 100 µM; in the experiment with A498 renal, 3.03 µM; with HCT-116 colon it was over 100 µM; with U251 CNS it was over 100 µM. In addition, the TGI in the experiment on SF-268 CNS, in the experiment on EKVX NSCLC, in the experiment on HS 578T breast and with OVCAR-8 ovarian was over 100 µM throughout.
